Test results published in patent US20150175599A1, “FAAH Inhibitors” (Ironwood Pharmaceuticals, Inc., priority 2010, published 2015).

Molecular target: T1, FAAH (Rattus norvegicus, UniProt P97612)
T1 construct: For the assay of FAAH activity in rat brain membrane (RBM) homogenates; tissue Charles River (animals); host or cells: rat whole brain, membrane fraction
T1 sequence (P97612 1-579): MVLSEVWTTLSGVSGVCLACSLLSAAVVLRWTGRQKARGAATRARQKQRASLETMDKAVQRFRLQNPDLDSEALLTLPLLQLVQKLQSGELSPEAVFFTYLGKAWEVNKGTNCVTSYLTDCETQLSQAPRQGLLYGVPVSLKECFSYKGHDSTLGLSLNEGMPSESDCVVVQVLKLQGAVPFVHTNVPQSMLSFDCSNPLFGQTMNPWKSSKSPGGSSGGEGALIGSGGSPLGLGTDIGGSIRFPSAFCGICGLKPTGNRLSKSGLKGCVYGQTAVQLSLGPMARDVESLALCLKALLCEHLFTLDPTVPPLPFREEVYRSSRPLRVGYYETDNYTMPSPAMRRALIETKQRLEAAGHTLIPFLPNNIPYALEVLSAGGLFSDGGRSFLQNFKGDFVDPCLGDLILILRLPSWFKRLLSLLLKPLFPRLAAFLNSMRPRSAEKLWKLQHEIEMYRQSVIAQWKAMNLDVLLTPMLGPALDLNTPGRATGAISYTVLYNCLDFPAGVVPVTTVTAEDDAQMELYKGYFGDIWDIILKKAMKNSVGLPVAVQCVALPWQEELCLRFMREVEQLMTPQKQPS
Assay: FAAH inhibition, rat brain membrane homogenate assay
Assay type: biochemical
Conditions: rat brain homogenate; average activity; read-out: Rat Brain Extract FAAH IC50
Description: Adult rats (Charles River CD strain, female, 200 g) were anaesthetized with isofluorane and rapidly decapitated. Each brain was quickly removed and chilled in tubes (3 brains per tube) on ice. About 25 mL of “homogenization buffer” (20 mM HEPES buffer, pH 7.0, with 1 mM MgCl2) was added to 15 to 20 g of brain. The brains were homogenized on ice for 1 minute using an Omni GLH homogenizer (Omni International, Marietta, Ga.). The homogenates were then transferred to three centrifuge tubes and centrifuged at 36,500 g for 20 minutes at 4° C. The supernatant was discarded and each pellet was re-suspended in 25 mL homogenization buffer. The re-suspended material was again centrifuged (36,500 g, 20 minutes at 4° C.). Pellets were combined by re-suspension in 10 mL of homogenization buffer and incubated in a 37° C. water bath for 15 minutes. The tubes were then placed on ice for 5 minutes followed by centrifugation at 36,500 g for 20 minutes at 4° C. The supernatant was discarded and the membrane pellets were then re-suspended in 40 mL of “re-suspension buffer” (50 mM Tris-HCl buffer, pH 7.4, containing 1 mM EDTA and 3 mM MgCl2). A Bradford Protein assay was performed to determine protein concentration. The protein was aliquotted into screw cap Cryo tubes each containing −400 μL, flash-frozen in liquid nitrogen and stored at −80° C. until used for the assay. A similar protocol was used to obtain brain membrane homogenates from mice
FAAH activity was assayed in the respective homogenates described herein (Rat brain, Mouse brain or Human brain) with certain of the exemplary compounds described above using a modification of the method of Omeir et al. (1995 Life Sci. 56:1999) and Fowler et al. (1997 J. Pharmacol. Exp. Ther. 283:729). For the assay of FAAH activity in rat brain membrane (RBM) homogenates, RBM homogenates (7 μg protein in 20 μL final volume of 10 mM Tris pH 6.5) were mixed with 180 μL of a mixture of the following: […] unlabelled anandamide (AEA), 0.03 Ci radio labeled anandamide [ethanolamine 1-^3H](40-60 Ci/mmol; product number ART-626, American Radiolabelled Chemicals, St. Louis, Mo.), 1 mg/mL Bovine Serum Albumin (fatty acid-free BSA, electrophoresis grade, Sigma, St. Louis, Mo.), 10 mM Tris-HCl (pH 6.5), and 1 mM EDTA in the presence and absence of test compounds (vehicle was DMSO at a final concentration of 1%) and incubated for 10 minutes at 37° C. Samples were placed on ice to terminate the reactions.
The ^3H-ethanolamine product and un-reacted ^3H-anandamide substrate were then separated by either: (1) using chloroform/methanol extraction or (2) passing the reaction mixture through a glass fiber filter containing activated charcoal. Samples were extracted with chloroform/methanol by adding 0.4 mL of chloroform/methanol (1:1 v/v), vigorously mixing the samples, and separating the aqueous and organic phases by centrifugation. Radioactivity (corresponding to FAAH-catalyzed breakdown of ^3H-anandamide) found in aliquots (0.2 mL) of the aqueous phase was determined by liquid scintillation counting with quench correction. IC50 values were determined as described by Jonsson et al. (2001 Br. J Pharmacol. 133:1263). Alternatively, reactions were purified using a modification of the solid-phase extraction method described by Wilson et al (2003 Anal. Biochem. 318: 270). This method was modified as follows: after reactions were incubated at 37° C. for 10 minutes and chilled on ice, the reaction mixtures were acidified by adding 10 μL of sodium phosphate solution[0.5M (pH 2.0)]. Next, 90 μL aliquots of the acidified reaction mixtures were applied to activated charcoal (that had been previously washed with methanol as described by Wilson et al. (supra)) containing 80 μL of water on top of a glass fiber filter, centrifuged, and the radioactivity in the eluate was counted as described previously by Wilson et al. (supra). […]

Row | Compound | IC50
1 | COc1cc(NC(=O)C(=O)c2c(C)n(Cc3ccc(Cl)cc3)c3cnccc23)ccn1 [Compound 35, 2-(1-(4-chlorobenzyl)-2-methyl-1H-pyrrolo[2,3-c]pyridin-3-yl)-N-(2-methoxypyridin-4-yl)-2-oxoacetamide] | 100 to 1000 nM
2 | COc1cc(NC(=O)C(=O)c2c(C)n(Cc3ncc(Cl)cc3Cl)c3ccc(C)cc23)ccn1 [Compound 30, 2-(1-((3,5-dichloropyridin-2-yl)methyl)-2,5-dimethyl-1H-indol-3-yl)-N-(2-methoxypyridin-4-yl)-2-oxoacetamide] | < 100 nM
3 | COc1cc(NC(=O)C(=O)c2c(C)n(Cc3ccc(Cl)cc3)c3ccc(C#N)cc23)ccn1 [Compound 15, 2-(1-(4-chlorobenzyl)-5-cyano-2-methyl-1H-indol-3-yl)-N-(2-methoxypyridin-4-yl)-2-oxoacetamide] | < 100 nM
4 | COc1cc(NC(=O)C(=O)c2c(C)n(Cc3ccc(Cl)cc3)c3ccc(N)cc23)ccn1 [Compound 20, 2-(5-amino-1-(4-chlorobenzyl)-2-methyl-1H-indol-3-yl)-N-(2-methoxypyridin-4-yl)-2-oxoacetamide] | < 100 nM
5 | COc1cc(NC(=O)C(=O)c2c(C)n(Cc3ncc(Cl)cc3Cl)c3cc(Cl)c(OC)cc23)ccn1 [Compound 70, 2-(6-chloro-1-((3,5-dichloropyridin-2-yl)methyl)-5-methoxy-2-methyl-1H-indol-3-yl)-N-(2-methoxypyridin-4-yl)-2-oxoacetamide] | < 100 nM
6 | COc1cc(NC(=O)C(=O)c2c(C)n(Cc3ccc(Cl)cn3)c3cc(Cl)c(OC)cc23)ccn1 [Compound 60, 2-(6-chloro-1-((5-chloropyridin-2-yl)methyl)-5-methoxy-2-methyl-1H-indol-3-yl)-N-(2-methoxypyridin-4-yl)-2-oxoacetamide] | < 100 nM
7 | COc1cc(NC(=O)C(=O)c2c(C)n(Cc3ccc(Cl)cc3)c3ccc(OC(F)(F)F)cc23)ccn1 [Compound 23, 2-(1-(4-chlorobenzyl)-2-methyl-5-(trifluoromethoxy)-1H-indol-3-yl)-N-(2-methoxypyridin-4-yl)-2-oxoacetamide] | < 100 nM
8 | COc1cc(NC(=O)C(=O)c2c(C)n(Cc3ccc(Cl)cc3)c3ncc(C)cc23)ccn1 [Compound 76, 2-(1-(4-chlorobenzyl)-2,5-dimethyl-1H-pyrrolo[2,3-b]pyridin-3-yl)-N-(2-methoxypyridin-4-yl)-2-oxoacetamide] | < 100 nM
9 | COc1cc(NC(=O)C(=O)c2c(C)n(Cc3ccc(Cl)cn3)c3ccccc23)ccn1 [Compound 68, 2-(1-((5-chloropyridin-2-yl)methyl)-2-methyl-1H-indol-3-yl)-N-(2-methoxypyridin-4-yl)-2-oxoacetamide] | < 100 nM
10 | COc1ccc2c(c1)c(C(=O)C(=O)Nc1ccnc(OC)c1F)c(C)n2Cc1ccc(Cl)cc1 [Compound 53, 2-(1-(4-chlorobenzyl)-5-methoxy-2-methyl-1H-indol-3-yl)-N-(3-fluoro-2-methoxypyridin-4-yl)-2-oxoacetamide] | < 100 nM
11 | COc1ccc(Cn2c(C)c(C(=O)C(=O)Nc3ccnc(OC)c3)c3cc(C)ccc32)nc1 [Compound 69, 2-(1-((5-methoxypyridin-2-yl)methyl)-2,5-dimethyl-1H-indol-3-yl)-N-(2-methoxypyridin-4-yl)-2-oxoacetamide] | < 100 nM
12 | COc1ccc(Cn2c(C)c(C(=O)C(=O)Nc3ccnc(OC)c3)c3cc(OC)ccc32)nc1 [Compound 43, 2-(5-methoxy-1-((5-methoxypyridin-2-yl)methyl)-2-methyl-1H-indol-3-yl)-N-(2-methoxypyridin-4-yl)-2-oxoacetamide] | < 100 nM
13 | COc1cc(NC(=O)C(=O)c2c(C)n(Cc3ncc(Cl)cc3Cl)c3cc(F)c(OC)cc23)ccn1 [Compound 13, 2-(1-((3,5-dichloropyridin-2-yl)methyl)-6-fluoro-5-methoxy-2-methyl-1H-indol-3-yl)-N-(2-methoxypyridin-4-yl)-2-oxoacetamide] | < 100 nM
14 | COc1cc(NC(=O)C(=O)c2c(C)n(Cc3ccc(Cl)cc3)c3ccc(C(F)(F)F)cc23)ccn1 [Compound 21, 2-(1-(4-chlorobenzyl)-2-methyl-5-(trifluoromethyl)-1H-indol-3-yl)-N-(2-methoxypyridin-4-yl)-2-oxoacetamide] | < 100 nM
15 | COc1cc(NC(=O)C(=O)c2c(C)n(Cc3ccc(Cl)cc3)c3cc(Cl)c(OC)cc23)ccn1 [Compound 55, 2-(6-chloro-1-(4-chlorobenzyl)-5-methoxy-2-methyl-1H-indol-3-yl)-N-(2-methoxypyridin-4-yl)-2-oxoacetamide] | < 100 nM
16 | COc1cc(NC(=O)C(=O)c2c(C)n(Cc3ccc(Cl)cc3)c3ccc(OC)nc23)ccn1 [Compound 36, 2-(1-(4-chlorobenzyl)-5-methoxy-2-methyl-1H-pyrrolo[3,2-b]pyridin-3-yl)-N-(2-methoxypyridin-4-yl)-2-oxoacetamide] | < 100 nM
17 | COc1cc(NC(=O)C(=O)c2c(C)n(Cc3ccc(Cl)cc3)c3ccncc23)ccn1 [Compound 37, 2-(1-(4-chlorobenzyl)-2-methyl-1H-pyrrolo[3,2-c]pyridin-3-yl)-N-(2-methoxypyridin-4-yl)-2-oxoacetamide] | < 100 nM
18 | COc1cc(NC(=O)C(=O)c2c(C)n(Cc3ccc(Cl)cc3)c3ccc(C(C)=O)cc23)ccn1 [Compound 5, 2-(5-acetyl-1-(4-chlorobenzyl)-2-methyl-1H-indol-3-yl)-N-(2-methoxypyridin-4-yl)-2-oxoacetamide] | < 100 nM
19 | COc1cc(NC(=O)C(=O)c2c(C)n(Cc3ccc(Cl)cn3)c3ccc(C)cc23)ccn1 [Compound 61, 2-(1-((5-chloropyridin-2-yl)methyl)-2,5-dimethyl-1H-indol-3-yl)-N-(2-methoxypyridin-4-yl)-2-oxoacetamide] | < 100 nM
20 | COc1cc(NC(=O)C(=O)c2c(C)n(Cc3ccc(Cl)cc3)c3ccc(CN(C)C)cc23)ccn1 [Compound 26, 2-(1-(4-chlorobenzyl)-5-((dimethylamino)methyl)-2-methyl-1H-indol-3-yl)-N-(2-methoxypyridin-4-yl)-2-oxoacetamide] | 100 to 1000 nM
21 | C=Cc1ccc2c(c1)c(C(=O)C(=O)Nc1ccnc(OC)c1)c(C)n2Cc1ccc(Cl)cc1 [Compound 27, 2-(1-(4-chlorobenzyl)-2-methyl-5-vinyl-1H-indol-3-yl)-N-(2-methoxypyridin-4-yl)-2-oxoacetamide] | < 100 nM
22 | CNCc1ccc2c(c1)c(C(=O)C(=O)Nc1ccnc(OC)c1)c(C)n2Cc1ccc(Cl)cc1 [Compound 25, 2-(1-(4-chlorobenzyl)-2-methyl-5-((methylamino)methyl)-1H-indol-3-yl)-N-(2-methoxypyridin-4-yl)-2-oxoacetamide] | 1000 to 10000 nM
